One assay deals with HCT-116. As to the kind of experiment: Antiproliferative activity against human HCT-116 cells assessed as reduction in cell viability incubated for 48 hrs by MTT assay. The settings on record: HCT-116, 48 h. The assay is classed as functional, cell-based. For orientation: Tetrazolium assays rely on reduction of a dye to a coloured formazan, in cell work by metabolically active cells.

The subject of a further assay is HeLa. As to the kind of experiment: Antiproliferative activity against human HeLa cells assessed as reduction in cell viability incubated for 48 hrs by MTT assay. The assay is classed as functional, cell-based.
In the next assay the test system is HepG2. The assay is described as follows: Antiproliferative activity against human HepG2 cells assessed as reduction in cell viability incubated for 48 hrs by MTT assay. Format: functional, cell-based. The following applies: HepG2, 48 h.
A further assay has as its system MDA-MB-231. The assay is described as follows: Antiproliferative activity against human MDA-MB-231 cells assessed as reduction in cell viability incubated for 48 hrs by MTT assay. Format: functional, cell-based. The settings on record: MDA-MB-231, 48 h.
The next assay concerns CNE-2. The assay is described as follows: Antiproliferative activity against human CNE-2 cells assessed as reduction in cell viability incubated for 48 hrs by MTT assay. The assay is classed as functional, cell-based. The following applies: CNE-2, 48 h.
In assay [1] the target is Phosphatidylinositol 4,5-bisphosphate 3-kinase catalytic subunit alpha isoform (Homo sapiens, UniProt P42336). As to the kind of experiment: Inhibition of PI3Kalpha (unknown origin) using PIP2 as substrate in presence of ATP incubated for 60 mins by ADP-glo based luminescence assay. In general terms: ADP-Glo first removes unused ATP, then detects ADP through luciferase.
Sequence of Phosphatidylinositol 4,5-bisphosphate 3-kinase catalytic subunit alpha isoform (P42336 whole entry, canonical isoform): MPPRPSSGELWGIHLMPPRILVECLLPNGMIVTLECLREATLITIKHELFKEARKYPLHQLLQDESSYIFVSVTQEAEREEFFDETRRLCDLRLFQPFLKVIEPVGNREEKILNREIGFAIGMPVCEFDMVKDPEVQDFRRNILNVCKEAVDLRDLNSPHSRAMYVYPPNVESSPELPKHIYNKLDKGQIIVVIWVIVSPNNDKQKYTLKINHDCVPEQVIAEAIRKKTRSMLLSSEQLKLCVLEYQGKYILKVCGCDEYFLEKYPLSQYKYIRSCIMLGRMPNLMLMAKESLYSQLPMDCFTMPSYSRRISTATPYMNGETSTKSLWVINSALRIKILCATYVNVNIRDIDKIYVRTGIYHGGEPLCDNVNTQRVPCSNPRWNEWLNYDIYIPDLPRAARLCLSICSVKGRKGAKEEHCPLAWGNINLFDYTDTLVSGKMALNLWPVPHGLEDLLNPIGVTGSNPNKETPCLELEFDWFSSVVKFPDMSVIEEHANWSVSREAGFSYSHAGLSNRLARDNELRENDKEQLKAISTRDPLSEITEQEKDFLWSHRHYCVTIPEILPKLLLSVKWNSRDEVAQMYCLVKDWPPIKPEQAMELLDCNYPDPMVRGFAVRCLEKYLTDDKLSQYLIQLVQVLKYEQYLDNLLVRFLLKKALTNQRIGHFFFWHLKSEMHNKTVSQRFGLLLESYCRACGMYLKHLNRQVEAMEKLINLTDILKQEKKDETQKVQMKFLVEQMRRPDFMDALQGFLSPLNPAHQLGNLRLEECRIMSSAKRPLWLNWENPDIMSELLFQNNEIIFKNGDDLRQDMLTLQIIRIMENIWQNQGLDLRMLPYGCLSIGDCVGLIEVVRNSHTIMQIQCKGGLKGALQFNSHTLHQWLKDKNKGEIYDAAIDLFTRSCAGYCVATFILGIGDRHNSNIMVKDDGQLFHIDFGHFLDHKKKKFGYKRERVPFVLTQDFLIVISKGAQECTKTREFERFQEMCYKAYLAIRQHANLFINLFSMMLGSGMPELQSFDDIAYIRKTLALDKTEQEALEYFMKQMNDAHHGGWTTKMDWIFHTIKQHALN

The test system of a further assay is MCF7. The assay is described as follows: Antiproliferative activity against human MCF7 cells assessed as reduction in cell viability incubated for 48 hrs by MTT assay. The following applies: MCF7, 48 h. The assay is classed as functional, cell-based.
The target of assay [2] is Serine/threonine-protein kinase mTOR (Homo sapiens, UniProt P42345). As to the kind of experiment: Inhibition of mTOR (unknown origin) using U-Light-4E-BP1 peptide as a substrate in presence of ATP incubated for 45 mins by Lance ultra assay.
The target of assay [3] is Phosphatidylinositol 4,5-bisphosphate 3-kinase catalytic subunit beta isoform (Homo sapiens, UniProt P42338). The assay is described as follows: Inhibition of PI3Kbeta (unknown origin) using PIP2 as substrate in presence of ATP incubated for 60 mins by ADP-glo based luminescence assay.
Sequence of Phosphatidylinositol 4,5-bisphosphate 3-kinase catalytic subunit beta isoform (P42338 whole entry, canonical isoform): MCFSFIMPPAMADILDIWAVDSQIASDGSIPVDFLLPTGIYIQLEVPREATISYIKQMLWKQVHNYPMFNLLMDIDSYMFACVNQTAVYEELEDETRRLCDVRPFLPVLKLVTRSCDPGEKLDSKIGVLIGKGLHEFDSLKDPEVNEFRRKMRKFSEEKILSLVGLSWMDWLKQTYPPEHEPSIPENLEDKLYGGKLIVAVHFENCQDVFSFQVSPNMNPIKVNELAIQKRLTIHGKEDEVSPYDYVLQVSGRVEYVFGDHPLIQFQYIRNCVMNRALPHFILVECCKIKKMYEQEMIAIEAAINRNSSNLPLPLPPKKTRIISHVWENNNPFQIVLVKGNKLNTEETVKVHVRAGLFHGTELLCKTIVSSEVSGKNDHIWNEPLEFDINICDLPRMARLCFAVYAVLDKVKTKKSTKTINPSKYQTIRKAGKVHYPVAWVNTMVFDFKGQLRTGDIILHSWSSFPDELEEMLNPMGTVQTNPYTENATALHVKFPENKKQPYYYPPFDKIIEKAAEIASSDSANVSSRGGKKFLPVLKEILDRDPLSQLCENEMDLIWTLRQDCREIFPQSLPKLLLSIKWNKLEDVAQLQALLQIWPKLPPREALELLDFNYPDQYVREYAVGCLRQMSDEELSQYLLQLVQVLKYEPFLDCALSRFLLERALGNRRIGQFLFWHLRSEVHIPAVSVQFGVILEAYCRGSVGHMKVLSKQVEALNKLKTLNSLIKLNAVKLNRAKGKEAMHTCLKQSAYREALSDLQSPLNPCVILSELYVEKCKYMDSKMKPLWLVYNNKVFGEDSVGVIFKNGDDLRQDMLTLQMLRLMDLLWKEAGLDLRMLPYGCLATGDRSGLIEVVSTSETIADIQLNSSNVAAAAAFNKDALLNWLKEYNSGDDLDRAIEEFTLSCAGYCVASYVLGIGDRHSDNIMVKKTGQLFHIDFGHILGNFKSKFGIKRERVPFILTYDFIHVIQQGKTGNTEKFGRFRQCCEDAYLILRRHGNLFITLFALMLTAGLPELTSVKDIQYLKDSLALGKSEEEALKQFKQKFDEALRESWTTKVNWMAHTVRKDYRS
The target of assay [4] is Phosphatidylinositol 4,5-bisphosphate 3-kinase catalytic subunit gamma isoform (Homo sapiens, UniProt P48736). The assay is described as follows: Inhibition of PI3Kgamma (unknown origin) using PIP2 as substrate in presence of ATP incubated for 60 mins by ADP-glo based luminescence assay.
Sequence of Phosphatidylinositol 4,5-bisphosphate 3-kinase catalytic subunit gamma isoform (P48736 whole entry, canonical isoform): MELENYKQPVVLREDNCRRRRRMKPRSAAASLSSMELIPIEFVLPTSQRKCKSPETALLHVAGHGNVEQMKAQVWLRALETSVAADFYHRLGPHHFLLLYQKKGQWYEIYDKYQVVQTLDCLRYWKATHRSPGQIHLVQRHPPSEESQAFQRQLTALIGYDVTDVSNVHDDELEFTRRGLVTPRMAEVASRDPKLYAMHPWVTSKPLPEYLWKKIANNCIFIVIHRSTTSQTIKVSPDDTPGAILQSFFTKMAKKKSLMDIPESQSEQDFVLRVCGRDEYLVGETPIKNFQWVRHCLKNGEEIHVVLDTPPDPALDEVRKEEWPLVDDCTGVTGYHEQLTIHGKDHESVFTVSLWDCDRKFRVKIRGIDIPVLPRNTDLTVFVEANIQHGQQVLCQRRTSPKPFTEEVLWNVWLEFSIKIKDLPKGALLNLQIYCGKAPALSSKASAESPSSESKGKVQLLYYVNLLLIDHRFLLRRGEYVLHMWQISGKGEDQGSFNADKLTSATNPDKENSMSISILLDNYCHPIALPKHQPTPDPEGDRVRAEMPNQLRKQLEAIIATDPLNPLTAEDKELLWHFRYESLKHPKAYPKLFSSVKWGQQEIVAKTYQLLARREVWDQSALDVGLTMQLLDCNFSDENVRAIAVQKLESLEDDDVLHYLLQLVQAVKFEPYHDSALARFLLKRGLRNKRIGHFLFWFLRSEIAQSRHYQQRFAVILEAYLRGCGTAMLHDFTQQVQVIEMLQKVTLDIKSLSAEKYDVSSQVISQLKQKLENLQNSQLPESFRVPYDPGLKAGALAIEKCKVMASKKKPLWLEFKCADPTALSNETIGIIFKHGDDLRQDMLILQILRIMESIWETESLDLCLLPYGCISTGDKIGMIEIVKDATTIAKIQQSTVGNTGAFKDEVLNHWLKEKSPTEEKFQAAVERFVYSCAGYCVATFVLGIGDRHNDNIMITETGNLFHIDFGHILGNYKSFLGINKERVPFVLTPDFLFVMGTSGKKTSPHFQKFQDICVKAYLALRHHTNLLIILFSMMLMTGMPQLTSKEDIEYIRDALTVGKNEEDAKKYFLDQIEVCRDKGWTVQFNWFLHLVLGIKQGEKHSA
The target in assay [5] is T1, Phosphatidylinositol 4,5-bisphosphate 3-kinase catalytic subunit delta isoform (Homo sapiens, UniProt O00329).
T1 sequence (O00329 whole entry): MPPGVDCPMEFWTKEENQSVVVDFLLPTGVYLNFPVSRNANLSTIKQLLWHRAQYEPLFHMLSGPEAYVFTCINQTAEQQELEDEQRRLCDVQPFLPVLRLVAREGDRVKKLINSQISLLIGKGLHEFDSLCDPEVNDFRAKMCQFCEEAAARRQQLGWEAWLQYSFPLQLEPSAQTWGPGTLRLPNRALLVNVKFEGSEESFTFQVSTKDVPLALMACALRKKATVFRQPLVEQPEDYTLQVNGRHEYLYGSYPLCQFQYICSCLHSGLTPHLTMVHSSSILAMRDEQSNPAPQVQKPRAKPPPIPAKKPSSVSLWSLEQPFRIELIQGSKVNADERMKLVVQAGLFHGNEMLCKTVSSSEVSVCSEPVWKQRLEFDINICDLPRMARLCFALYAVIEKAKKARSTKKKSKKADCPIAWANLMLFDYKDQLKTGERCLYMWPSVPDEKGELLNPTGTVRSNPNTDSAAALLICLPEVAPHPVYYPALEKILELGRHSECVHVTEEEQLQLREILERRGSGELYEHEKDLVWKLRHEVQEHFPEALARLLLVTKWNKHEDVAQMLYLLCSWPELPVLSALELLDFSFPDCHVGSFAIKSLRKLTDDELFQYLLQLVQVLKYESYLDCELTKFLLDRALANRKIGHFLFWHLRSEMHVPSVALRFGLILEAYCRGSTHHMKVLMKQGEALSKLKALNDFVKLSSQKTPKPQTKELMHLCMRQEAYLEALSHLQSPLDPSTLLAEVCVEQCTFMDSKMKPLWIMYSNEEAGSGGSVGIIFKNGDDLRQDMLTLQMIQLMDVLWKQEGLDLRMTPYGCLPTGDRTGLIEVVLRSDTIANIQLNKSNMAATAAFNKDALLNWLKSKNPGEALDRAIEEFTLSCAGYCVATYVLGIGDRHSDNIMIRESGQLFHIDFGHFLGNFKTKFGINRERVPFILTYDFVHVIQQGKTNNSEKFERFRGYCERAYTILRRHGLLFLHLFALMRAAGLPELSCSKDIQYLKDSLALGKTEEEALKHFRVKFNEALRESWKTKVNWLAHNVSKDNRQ
The assay is described as follows: Inhibition of PI3Kdelta (unknown origin) using PIP2 as substrate in presence of ATP incubated for 60 mins by ADP-glo based luminescence assay.

Where only a bound is given, the exact number is not on record here.

What is called IC50 is the concentration that gives 50% inhibition.

With `CN(C)C1CCN(C(=O)c2ccc(NC(=O)Nc3ccc(-c4nc(N5CCOCC5)nc(N5C[C@@H]6OCCO[C@H]6C5)n4)cc3)cc2)CC1`, the IC50 turned out to be 1300 nM with HCT-116; 7940 nM with HeLa; 200 nM with HepG2; 1920 nM with MDA-MB-231; 290 nM in the assay with CNE-2; 10.2 nM in assay [1]. Moreover, the IC50 with MCF7 came out at 2260 nM; in assay [2], 4.8 nM.

On to `NC(=O)[C@H]1CCCN1C(=O)c1ccc(NC(=O)Nc2ccc(-c3cc(N4CCOCC4)nc(N4CCOCC4)n3)cc2)cc1`, for which the IC50 stood at 6130 nM in the assay with HCT-116; 6980 nM in the assay on HeLa; 16400 nM in the assay with MDA-MB-231; 3830 nM in the assay with CNE-2; 5.7 nM in [1]; 7.3 nM in [2].

For the compound `NC(=O)C1CCCN1C(=O)c1ccc(NC(=O)Nc2ccc(-c3nc(N4CCOCC4)nc(N4CCOCC4)n3)cc2)cc1` (stereo not given), the IC50 was determined as 200 nM with HCT-116; 8600 nM with HeLa; 6780 nM in the assay with MDA-MB-231; 520 nM in the assay with CNE-2; 0.6 nM in assay [1]; 4850 nM in the assay on MCF7. For the same compound, the IC50 in [2] was determined as 1.4 nM.

Consider `C[C@@H]1COCCN1c1nc(-c2ccc(NC(=O)Nc3ccc(C(=O)N4CCC[C@H]4C(N)=O)cc3)cc2)nc(N2CCOCC2)n1`, for which the IC50 in the assay on HCT-116 is 2190 nM; in the assay with HeLa, 460 nM; in the assay with HepG2, 1030 nM; in the assay on MDA-MB-231, 1300 nM; in the assay with CNE-2 it was 350 nM; in assay [1], 1.8 nM. For the same compound, the IC50 in the assay with MCF7 amounted to 3500 nM; in [2], 1 nM.

Take `CN(C)C1CCN(C(=O)c2ccc(NC(=O)Nc3ccc(-c4cc(N5CCOCC5)nc(N5CCOCC5)n4)cc3)cc2)CC1`: the IC50 with HCT-116 was 1610 nM; in the assay on HeLa it was 4740 nM; in the assay with MDA-MB-231, 7570 nM; with CNE-2, 1460 nM; in [1], 31.8 nM; in the assay on MCF7, 9280 nM. In addition, the IC50 in assay [2] amounted to 6.2 nM.

Regarding `C[C@H]1COCCN1c1nc(-c2ccc(NC(=O)Nc3ccc(C(=O)N4CCC(C(N)=O)CC4)cc3)cc2)nc(N2CCOCC2)n1`, the IC50 in the assay on HCT-116 is 380 nM; in the assay with HeLa, 210 nM; in the assay on HepG2, 540 nM; in the assay on MDA-MB-231, 1740 nM; in the assay on CNE-2, 670 nM; in assay [1] it was 4.3 nM. The IC50 in assay [2] was found to be 1.2 nM.

Consider `COC(=O)[C@@H]1CCCN1C(=O)c1ccc(NC(=O)Nc2ccc(-c3nc(N4CCOCC4)nc(N4CCOCC4)n3)cc2)cc1`, for which the IC50 was determined as 2700 nM in the assay on HCT-116; 9710 nM in the assay with HeLa; 10400 nM in the assay with HepG2; 10400 nM in the assay on MDA-MB-231; 3990 nM in the assay on CNE-2; 19 nM in assay [1]. Besides, the IC50 turned out to be 9030 nM in the assay on MCF7 and 4.2 nM in assay [2].

Consider `NC(=O)[C@@H]1CCCN1C(=O)c1ccc(NC(=O)Nc2ccc(-c3cc(N4CCOCC4)nc(N4CCOCC4)n3)cc2)cc1`, for which the IC50 is 8040 nM with HCT-116; 13500 nM with HeLa; 24200 nM in the assay on HepG2; 11300 nM in the assay on MDA-MB-231; 1950 nM with CNE-2; 13.8 nM in assay [1]. The IC50 turned out to be 7890 nM in the assay on MCF7 and 7.4 nM in assay [2].

Regarding `C[C@H]1COCCN1c1ccnc(-c2ccc(NC(=O)Nc3ccc(C(=O)N4CCC[C@H]4C(N)=O)cc3)cc2)n1`, the IC50 in [1] was determined as 28.7 nM; in assay [2], 9.2 nM.

`NC(=O)C1CCCCN1C(=O)c1ccc(NC(=O)Nc2ccc(-c3nc(N4CCOCC4)nc(N4CCOCC4)n3)cc2)cc1` (stereo not given): the IC50 stood at 3780 nM with HCT-116; 10300 nM in the assay on HeLa; 16600 nM in the assay with HepG2; 5640 nM in the assay on MDA-MB-231; 1740 nM with CNE-2; 1.6 nM in assay [1]. In [2], the IC50 is 3 nM.

With `CN(C)[C@H]1C[C@@H](C(N)=O)N(C(=O)c2ccc(NC(=O)Nc3ccc(-c4nc(N5CCOCC5)nc(N5CCOCC5)n4)cc3)cc2)C1`, the IC50 in the assay with HCT-116 turned out to be 2480 nM; in the assay with HeLa, 28500 nM; in the assay with HepG2, 18700 nM; with MDA-MB-231 it was 19200 nM; in the assay on CNE-2, 6670 nM; in assay [1] it was 9.1 nM. In assay [2], the IC50 turned out to be 3.1 nM.

As for `NC(=O)C1CCCCN1C(=O)c1ccc(NC(=O)Nc2ccc(-c3cc(N4CCOCC4)nc(N4CCOCC4)n3)cc2)cc1` (stereo not given), the IC50 was 2570 nM with HCT-116; 1510 nM with HeLa; 17700 nM in the assay on HepG2; 5210 nM in the assay with MDA-MB-231; 2000 nM in the assay with CNE-2; 16.5 nM in assay [1]. The IC50 came out at 3160 nM in the assay on MCF7 and 7.6 nM in [2].

As to `NC(=O)[C@@H]1CCCN1C(=O)c1ccc(NC(=O)Nc2ccc(-c3cc(N4CCOCC4)ncn3)cc2)cc1`, in assay [1], the IC50 was > 1000 nM.

For `O=C(Nc1ccc(C(=O)N2CCCC2C(=O)O)cc1)Nc1ccc(-c2nc(N3CCOCC3)nc(N3CCOCC3)n2)cc1` (stereo not given), the concentration for half-maximal inhibition (IC50) was 11700 nM in the assay on HeLa; 29100 nM in the assay with MDA-MB-231; 2560 nM with CNE-2; 11 nM in [1]; 7150 nM with MCF7; 3.7 nM in assay [2].

Take `COC(=O)[C@@H]1C[C@@H](O)CN1C(=O)c1ccc(NC(=O)Nc2ccc(-c3nc(N4CCOCC4)nc(N4CCOCC4)n3)cc2)cc1`: the IC50 in the assay on HCT-116 was 310 nM; in the assay with HeLa, 1430 nM; in the assay on HepG2, 8820 nM; with MDA-MB-231, 430 nM; with CNE-2, 2680 nM; in assay [1], 28.7 nM. In addition, the IC50 in the assay with MCF7 is 700 nM; in assay [2], 3.3 nM.

In the case of `NC(=O)[C@@H]1CCCN1C(=O)Nc1ccc(-c2nccc(N3CCOCC3)n2)cc1`, the IC50 in assay [1] is > 1000 nM; in [2] it was 10.3 nM.

For `NC(=O)[C@@H]1C[C@@H]2C[C@@H]2N1C(=O)c1ccc(NC(=O)Nc2ccc(-c3nc(N4CCOCC4)nc(N4CCOCC4)n3)cc2)cc1`, the concentration for half-maximal inhibition (IC50) came to 1960 nM in the assay with HCT-116; 15600 nM with HeLa; 9890 nM in the assay with MDA-MB-231; 9160 nM with CNE-2; 1.9 nM in assay [1]; 10500 nM with MCF7. The IC50 in assay [2] turned out to be 2 nM.

`C[C@H](NC(=O)c1ccc(NC(=O)Nc2ccc(-c3nc(N4CCOCC4)nc(N4CCOC[C@@H]4C)n3)cc2)cc1)C(N)=O`: the IC50 worked out at 47.1 nM in assay [3]; 34 nM in assay [4]; 44.1 nM in [5]; 5 nM in [1]; 0.9 nM in assay [2].

`NC(=O)[C@@H]1CCCN1C(=O)c1ccc(NC(=O)Nc2ccc(-c3nc(N4CCOCC4)nc(N4C[C@@H]5OCCO[C@H]5C4)n3)cc2)cc1`: the IC50 is 780 nM with HCT-116; 560 nM in the assay on HeLa; 620 nM with MDA-MB-231; 950 nM in the assay with CNE-2; 4.3 nM in [1]; 5.7 nM in assay [2].

On to `CN(C)C1CCN(C(=O)c2cnc(Nc3ccc(-c4nc(N5CCOCC5)nc(N5CCOCC5)n4)cc3)nc2)CC1`, for which the IC50 in assay [1] was > 1000 nM.

Take `NC(=O)[C@@H]1CCCN1C(=O)c1cnc(Nc2ccc(-c3nc(N4CCOCC4)nc(N4CCOCC4)n3)cc2)nc1`: the IC50 in assay [1] worked out at 680 nM.

For the origin of these results see ChEMBL document CHEMBL5046253, “Synthesis and bioevaluation of diaryl urea derivatives as potential antitumor agents for the treatment of human colorectal cancer” (Eur J Med Chem, 2022).
